Test results as given in US9234046B2, “Treatment of renal disease” (OPSONA Therapeutics Ltd, priority 2007, dated 2016).

Tested on: C57BL/6 mice
Experiment: Warm renal ischemia/reperfusion, 30 minutes ischemia (Example 2)
Assay type: in vivo
Conditions: mean±SEM, n=6, 1 day after 30 min ischemia/reperfusion
Experimental: Nine Experimental groups were used as follows: • 1) Sham-operated mice sacrificed 1 day after surgery, n=6, • 2) PBS-vehicle-treated mice 15 min before ischemia/1 day reperfusion, n=6, • 3) Isotype control antibody 10 mg/kg-treated mice 15 minutes before ischemia/1 day reperfusion, n=6 (The isotype control antibody is mouse IgG1 isotype control purchased from RnD systems (catalogue number MAB002), this isotype control antibody having binding specificity for Keyhole Limpet Hemocyanin (KLH) antigen), • 4) OPN301 anti-TLR2 monoclonal antibody 10 mg/kg-treated mice 15 minutes before ischemia/1 day reperfusion, n=6, • 5) Pargyline 6 mg/kg-treated mice 15 minutes before ischemia/1 day reperfusion, n=6, • 6) PBS-vehicle-treated mice 15 minutes before ischemia/5 days reperfusion, n=6, • 7) Isotype control antibody (RnD systems catalogue number MAB002) 10 mg/kg-treated mice 15 minutes before ischemia/5 days reperfusion, n=6, • 8) OPN301 anti-TLR2 antibody 10 mg/kg-treated mice 15 minutes before ischemia/5 days reperfusion, n=6, • 9) Pargyline 6 mg/kg-treated mice 15 minutes before ischemia/5 days reperfusion, n=6. Experimental Warm Renal Ischemia/Reperfusion
Warm renal ischemia/reperfusion (I/R) experiments were adapted from a previous study (Stokman et al, 2005). Briefly, a wild type strain of C57BL/6 mice were anesthetized with 10 μl/g of a mix of 2.5 ml ketamine (Ketalar 50 mg/ml, Centravet; Lapalisse, France), 0.5 ml xylazine (Rompun 2.5%, Centravet; Lapalisse, France), and 7 ml NaCl 0.9% (Centravet; Lapalisse, France). During surgery, animals were set on a 35° C. hotplate. After a 2 millimeters incision, the jugular vein was exposed for intravenous injection (insulin syringe; VWR, Fontenay-sous-Bois, France) of 300 μl (1 min infusion) of the considered treatment. The incision was closed after haemostasis (5/0 Ethicrin thread, Ethicon; Auneau, France). Three centimetre in length abdominal cutaneous and muscular incisions were performed; renal pedicles were exposed and clamped for 30 minutes using microaneurysm clamps (AREX; Palaiseau, France). […]

SMILES: C#CCN(C)Cc1ccccc1 [Pargyline]
- MDA level (lipid peroxidation) (PBS-vehicle 0.082±0.004): 0.051±0.002 nmol/mg proteins
- MPO activity (neutrophil accumulation in renal tissue) (PBS-vehicle 63.2±9.55): 53.48±5.34 U MPO/mg protein
- F4/80-positive staining (macrophage infiltration) (treated 15 min before ischemia (antibodies 10 mg/kg, pargyline 6 mg/kg), PBS-vehicle 3.24±0.21): 1.39±0.15%
